Experimental data from patent US8969325B2, “TRPV1 antagonists” (AbbVie Inc., priority 2011, dated 2015).

Columns and labels:
[1] = system: rats; assay: Sodium iodoacetate-induced knee joint osteoarthritic pain model (hind limb grip force); type: in vivo; settings: rat, po, single acute dose, 1 hour after administration, 20 days after sodium iodoacetate, read-out: % effect (% return to normalcy of hind limb grip force)
Procedure: Unilateral knee joint osteoarthritis was induced in the rats by a single intra-articular (i.a.) injection of sodium iodoacetate (3 mg in 0.05 mL sterile isotonic saline) into the right knee joint cavity under light isoflurane anesthesia using a 26 G needle. […] Pain behavioral assessment of hind limb grip force was conducted by recording the maximum compressive force exerted on the hind limb strain gauge setup, in a commercially available grip force measurement system (Columbus Instruments, Columbus, Ohio). The grip force data was converted to a maximum hindlimb cumulative compressive force (CFmax) (gram force)/kg body weight for each animal. The analgesic effects of test compounds were determined 20 days following the i.a. injection of sodium iodoacetate. The vehicle control group for each compound being tested was assigned 0% whereas the age matched naïve group was assigned as being 100% (normal). The % effect for each dose group was then expressed as % return to normalcy compared to the naïve group. Test compounds were administered orally in 10% ethanol/20% Tween 80/70% polyethylene glycol-400 vehicle at a volume of 2 mL/kg. The assessment of the analgesic effects of test compounds was made 1 hour following oral administration. The assessment of the analgesic effects of test compounds can be made following a single dose or following repeated administration wherein the frequency of dosing is 1 to 2 times daily. The duration of such repeated daily dosing may last for any time greater than one day. A typical duration of repeated daily dosing is about 5 days to about 12 days.

[2] = molecular target: T1, human TRPV1 (Homo sapiens (Human), UniProt Q8NER1); assay: Capsaicin Activation Assay (intracellular Ca2+, FLIPR); type: cell-based; settings: recombinant HEK293 cells expressing hTRPV1, 50 nM capsaicin
How it was run: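 Stably transfected HEK293 cells expressing human TRPV1 cDNA, plated the day before in poly-D-lysine plates. Compounds serially diluted from 10 mM DMSO stocks; intracellular Ca2+ fluorescence read on FLIPR at 1 to 5 second intervals.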

[3] = molecular target: T1, human TRPV1; assay: Acid Activation Assay (pH 5.0, intracellular Ca2+, FLIPR); type: cell-based; settings: percentage of the maximal pH 5.0-induced response remaining; recombinant HEK293 hTRPV1 cells; maximum concentration tested 37.5 μM
How it was run: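 HEK293 cells stably expressing recombinant hTRPV1, loaded with Calcium-4 dye 90-120 min at 25° C. Compounds added over a 12-point half-log range (top 37.5 μM), then pH 5.0 DPBS/MES challenge after 3 min; FLIPR peak fluorescence over baseline given as % of maximal pH 5.0 response.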

[4] = system: rats; assay: Rat acute capsaicin-induced flinching behavior; type: in vivo; settings: 1 h, oral dose given as 100 nmol/kg, capsaicin 2.5 μg into hind paw one hour after compound, five minute observation, relative to control-treated animals, read-out: % effect (percent reduction in the number of flinching behaviors)
Procedure: Rats were placed in individual observation cages. Following an acclimation period of 30 minutes, selected compounds were administered orally at a dose of 100 nmol/kg in a vehicle (10% ethanol/20% Tween 80/70% polyethylene glycol-400) at a volume of 2 mL/kg. One hour after administration of the compound, 2.5 μg of capsaicin in a 10 μL solution of 10% ethanol/90% hydroxypropyl-β-cyclodextrin was injected subcutaneously into the dorsal aspect of the right hind paw. The observation cage was then suspended above mirrors in order to facilitate observation. […] The number of flinching behaviors of the injured paw was recorded during the five minute observation period (Gilchrist, H. D.; Allard, B. L.; Simone, D. A.; Enhanced withdrawal responses to heat and mechanical stimuli following intraplantar injection of capsaicin in rats. Pain, 1996, 67, 179-188). The percent reduction in the number of flinching behaviors produced from oral administration of the test compounds relative to control-treated animals (% effect) is reported in Table 2.

T1 sequence (Q8NER1 whole entry): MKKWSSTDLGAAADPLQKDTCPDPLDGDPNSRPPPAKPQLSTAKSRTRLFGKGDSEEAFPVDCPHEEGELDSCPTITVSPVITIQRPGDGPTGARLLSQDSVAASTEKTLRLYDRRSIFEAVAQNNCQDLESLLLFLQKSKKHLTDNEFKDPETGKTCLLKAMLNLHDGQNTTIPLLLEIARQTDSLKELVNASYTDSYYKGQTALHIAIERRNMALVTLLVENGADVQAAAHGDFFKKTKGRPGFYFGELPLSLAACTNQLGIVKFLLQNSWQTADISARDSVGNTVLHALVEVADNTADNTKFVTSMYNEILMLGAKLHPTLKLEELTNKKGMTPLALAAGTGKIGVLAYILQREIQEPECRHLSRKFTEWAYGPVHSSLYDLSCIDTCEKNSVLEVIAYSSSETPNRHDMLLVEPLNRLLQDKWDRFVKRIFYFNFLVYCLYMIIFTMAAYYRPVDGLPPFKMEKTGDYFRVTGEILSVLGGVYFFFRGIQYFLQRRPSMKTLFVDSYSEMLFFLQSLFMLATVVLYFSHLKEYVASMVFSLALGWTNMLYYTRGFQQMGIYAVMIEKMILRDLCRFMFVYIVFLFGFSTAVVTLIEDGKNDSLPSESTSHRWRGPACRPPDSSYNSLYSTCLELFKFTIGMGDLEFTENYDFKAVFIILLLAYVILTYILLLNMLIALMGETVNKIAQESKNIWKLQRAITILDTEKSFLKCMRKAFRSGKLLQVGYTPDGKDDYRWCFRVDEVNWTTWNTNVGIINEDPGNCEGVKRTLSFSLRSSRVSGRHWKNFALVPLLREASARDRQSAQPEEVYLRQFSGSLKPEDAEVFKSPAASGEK

Row | IC50 [2] [µM] | human TRPV1 H^+ (max % remain) [3] [%] | Compound | inhibition in vivo at 14 mg/kg ([1]; 14 mg/kg) [%] | inhibition in vivo at 12 mg/kg ([1]; 12 mg/kg) [%] | inhibition in vivo at 0.1 µmol/kg [4] [%] | inhibition in vivo at 10 mg/kg [1] [%]
1 | 0.036 | 21 | CN1C(=O)NCc2c(NC(=O)N[C@@H]3CC(CF)(CF)Oc4cc(Cl)ccc43)cccc21 [Example 2, 1-[(4R)-7-chloro-2,2-bis(fluoromethyl)-3,4-dihydro-2H-chromen-4-yl]-3-(1-methyl-2-oxo-1,2,3,4-tetrahydroquinazolin-5-yl)urea] | 36 |  |  | 
2 | 0.053 | 41 | CN1C(=O)NCc2c(NC(=O)N[C@@H]3C[C@@](C)(C(F)F)Oc4ccccc43)cccc21 [Example 13, 1-[(2S,4R)-2-(difluoromethyl)-2-methyl-3,4-dihydro-2H-chromen-4-yl]-3-(1-methyl-2-oxo-1,2,3,4-tetrahydroquinazolin-5-yl)urea] |  | 63 |  | 
3 | 0.07 | 54 | CN1Cc2ccc(NC(=O)N[C@@H]3CCc4cc(Cl)ccc43)cc2NC1=O [Example 17, 1-[(1R)-5-chloro-2,3-dihydro-1H-inden-1-yl]-3-(3-methyl-2-oxo-1,2,3,4-tetrahydroquinazolin-7-yl)urea] |  |  | 83 | 
4 |  | 38 | Cn1c(=O)ccc2c(NC(=O)N[C@@H]3CC(C)(C)Oc4cc(F)ccc43)cccc21 [Example 19, 1-[(4R)-7-fluoro-2,2-dimethyl-3,4-dihydro-2H-chromen-4-yl]-3-(1-methyl-2-oxo-1,2-dihydroquinolin-5-yl)urea] |  |  | 90 | 
5 | 0.021 | 60 | Cn1c(=O)ccc2c(NC(=O)N[C@@H]3CC(C)(C)Oc4ccc(F)cc43)cccc21 [Example 24, 1-[(4R)-6-fluoro-2,2-dimethyl-3,4-dihydro-2H-chromen-4-yl]-3-(1-methyl-2-oxo-1,2-dihydroquinolin-5-yl)urea] |  |  | 58 | 
6 | 0.021 | 42 | Cn1c(=O)ccc2c(NC(=O)N[C@@H]3CC(CF)(CF)Oc4cc(F)ccc43)cccc21 [Example 27, 1-[(4R)-7-fluoro-2,2-bis(fluoromethyl)-3,4-dihydro-2H-chromen-4-yl]-3-(1-methyl-2-oxo-1,2-dihydroquinolin-5-yl)urea] |  |  | 33 | 
7 | 0.012 | 53 | Cn1c(=O)ccc2c(NC(=O)N[C@@H]3C[C@](C)(C(F)F)Oc4ccccc43)cccc21 [Example 28, 1-[(2R,4R)-2-(difluoromethyl)-2-methyl-3,4-dihydro-2H-chromen-4-yl]-3-(1-methyl-2-oxo-1,2-dihydroquinolin-5-yl)urea] |  |  | 81 | 
8 |  | 36 | O=C1CCc2ccc(NC(=O)N[C@@H]3CC(CF)(CF)Oc4cc(Cl)ccc43)cc2N1 [Example 31, 1-[(4R)-7-chloro-2,2-bis(fluoromethyl)-3,4-dihydro-2H-chromen-4-yl]-3-(2-oxo-1,2,3,4-tetrahydroquinolin-7-yl)urea] |  |  |  | 24
9 | 0.036 | 37 | CC1(C)C[C@@H](NC(=O)Nc2ccc3c(c2)NC(=O)CC3)c2ccc(C(F)(F)F)cc2O1 [Example 32, 1-[(4R)-2,2-dimethyl-7-(trifluoromethyl)-3,4-dihydro-2H-chromen-4-yl]-3-(2-oxo-1,2,3,4-tetrahydroquinolin-7-yl)urea] |  |  |  | 22
10 | 0.007 | 34 | C[C@]1(C(F)(F)F)C[C@@H](NC(=O)Nc2ccc3c(c2)NC(=O)CC3)c2ccccc2O1 [Example 34, 1-[(2R,4R)-2-methyl-2-(trifluoromethyl)-3,4-dihydro-2H-chromen-4-yl]-3-(2-oxo-1,2,3,4-tetrahydroquinolin-7-yl)urea] |  |  |  | 46
11 | 0.004 | 38 | O=C1CCc2ccc(NC(=O)N[C@@H]3CCc4cc(C(F)(F)F)ccc43)cc2N1 [Example 35, 1-(2-oxo-1,2,3,4-tetrahydroquinolin-7-yl)-3-[(1R)-5-(trifluoromethyl)-2,3-dihydro-1H-inden-1-yl]urea] |  |  |  | 42
12 | 0.014 | 34 | CC1(C)C[C@@H](NC(=O)Nc2ccc3c(c2)NC(=O)CC3)c2ccc(Cl)c(F)c2O1 [Example 39, 1-[(4R)-7-chloro-8-fluoro-2,2-dimethyl-3,4-dihydro-2H-chromen-4-yl]-3-(2-oxo-1,2,3,4-tetrahydroquinolin-7-yl)urea] |  |  |  | 50
13 | 0.032 | 30 | CCC1(CC)C[C@@H](NC(=O)Nc2ccc3c(c2)NC(=O)CC3)c2cccc(F)c2O1 [Example 222, 1-[(4R)-2,2-diethyl-8-fluoro-3,4-dihydro-2H-chromen-4-yl]-3-(2-oxo-1,2,3,4-tetrahydroquinolin-7-yl)urea] |  |  |  | 26
14 | 0.078 | 26 | O=C1CCc2ccc(NC(=O)N[C@@H]3CCc4cc(Cl)ccc43)cc2N1 [Example 251, 1-[(1R)-5-chloro-2,3-dihydro-1H-inden-1-yl]-3-(2-oxo-1,2,3,4-tetrahydroquinolin-7-yl)urea] |  |  |  | 38
15 | 0.021 | 87 | C[C@]1(C(F)F)C[C@@H](NC(=O)Nc2ccc3c(c2)NC(=O)CO3)c2ccc(Cl)cc2O1 [Example 321, 1-[(2R,4R)-7-chloro-2-(difluoromethyl)-2-methyl-3,4-dihydro-2H-chromen-4-yl]-3-(3-oxo-3,4-dihydro-2H-1,4-benzoxazin-6-yl)urea] |  |  |  | 31
16 | 0.046 | 76 | C[C@@]1(C(F)F)C[C@@H](NC(=O)Nc2ccc3c(c2)NC(=O)CO3)c2ccc(Cl)cc2O1 [Example 322, 1-[(2S,4R)-7-chloro-2-(difluoromethyl)-2-methyl-3,4-dihydro-2H-chromen-4-yl]-3-(3-oxo-3,4-dihydro-2H-1,4-benzoxazin-6-yl)urea] |  |  |  | 
17 | 0.0045 | 0 | O=C1COc2c(cccc2NC(=O)N[C@@H]2CC(CF)(CF)Oc3cc(Cl)ccc32)N1 [Example 323, 1-[(4R)-7-chloro-2,2-bis(fluoromethyl)-3,4-dihydro-2H-chromen-4-yl]-3-(3-oxo-3,4-dihydro-2H-1,4-benzoxazin-8-yl)urea] |  |  |  | 
18 | 0.019 | 96 | O=C1COc2ccc(NC(=O)N[C@@H]3CC(CF)(CF)Oc4cc(C(F)(F)F)ccc43)cc2N1 [Example 324, 1-[(4R)-2,2-bis(fluoromethyl)-7-(trifluoromethyl)-3,4-dihydro-2H-chromen-4-yl]-3-(3-oxo-3,4-dihydro-2H-1,4-benzoxazin-6-yl)urea] |  |  |  | 67
19 | 0.021 | 83 | CC1(C)C[C@@H](NC(=O)Nc2ccc3c(c2)NC(=O)CO3)c2ccc(Cl)c(F)c2O1 [Example 325, 1-[(4R)-7-chloro-8-fluoro-2,2-dimethyl-3,4-dihydro-2H-chromen-4-yl]-3-(3-oxo-3,4-dihydro-2H-1,4-benzoxazin-6-yl)urea] |  |  |  | 
20 | 0.032 | 80 | CN1C(=O)CCc2ccc(NC(=O)N[C@@H]3C[C@](C)(C(F)(F)F)Oc4ccccc43)cc21 [Example 326, 1-(1-methyl-2-oxo-1,2,3,4-tetrahydroquinolin-7-yl)-3-[(2R,4R)-2-methyl-2-(trifluoromethyl)-3,4-dihydro-2H-chromen-4-yl]urea] |  |  |  | 
